Results as given in patent publication EP2963022A1, “FUSED HETEROCYCLIC COMPOUND AND PEST CONTROL APPLICATIONS THEREOF” (priority 2013, dated 2014).

Assays:
Format in all cases: in vivo
Culex pipiens pallens = assay: Test Example 10: larvicidal test in water against Culex pipiens pallens; conditions: 24 h, active ingredient concentration 3.5 ppm in ion-exchanged water, last-instar larvae, one day later, read-out: Death rate
Method: The formulations of Compounds of Present Invention 1-2, 1-3 and 1-8 as obtained in Formulation Example 5 were diluted with water, so as to have a concentration of the active ingredient of 500 ppm, to prepare a test drug solution.
0.7 ml of the test drug solution was added to 100 ml of ion-exchanged water (active ingredient concentration: 3.5 ppm). 20 last-instar larvae of Culex pipiens pallens were released into the solution. One day later, the life and death of the Culex pipiens pallens was examined, and the number of dead insects was counted to calculate the death rate. Death rate (%) = (Number of deads insects/Number of tested insects) × 100 [formula]

[1] = test system: Haemaphysalis longicornis; assay: Test Example 11: coated screw tube contact test against Haemaphysalis longicornis ticks; conditions: 48 h, 2 mg in 0.2 mL acetone coated on inner wall of screw tube, unfed nymphal ticks, after 2 days, read-out: Death rate
Method: Compound of Present Invention 1-24 (2 mg) was weighed in a screw tube (Maruemu No. 5; 27 x 55 mm), and 0.2 mL of acetone was added thereto, and the screw tube was sealed with a cap to dissolve the compound. The screw tube was rotated and inverted to uniformly coat the drug solution onto the whole inner wall of the tube. After removing the cap, the solution was air-dried for about 2 hours, then unfed nymphal ticks, Haemaphysalis longicornis (5 ticks/group) were released, and the tube was sealed with the cap. After 2 days, the number of dead insects was counted, and the death rate was calculated according to the following equation. Death rate (%) = 100 × (Number of deads insects/Number of tested insects) [formula]

Plutella xylostella = assay: Test Example 6: spray test on cabbage against Plutella xylostella larvae; conditions: 120 h, sprayed 20 mL/cup on cabbage, second instar larvae, 5 days at 25°C, read-out: Death rate
Method: On the other hand, on cabbage at the third leaf stage planted in a polyethylene cup was sprayed, at a rate 20 mL/cup, the test drug solution. After the drug solution was dried, the foliage part was cut off, and then placed in a 50 mL volume cup. Five second instar larvae of Plutella xylostella were released into the cup, and the cup was sealed with a lid. After the cup was kept at 25°C for 5 days, the number of dead insects was counted. The death rate was calculated according to the following equation. Death rate (%) = (Number of deads insects/Number of tested insects) × 100 [formula]

[2] = test system: Adoxophyes orana fasciata; assay: Test Example 7: spray test on apple tree against Adoxophyes orana fasciata larvae; conditions: in Malus domestica, 168 h, read-out: Death rate
Method: The formulations of Compounds of Present Invention 1-2 and 1-3 as obtained in Formulation Example 5 were diluted with water, so as to have a concentration of the active ingredient of 500 ppm, to prepare a test spray solution.
On the other hand, an apple tree was planted in a plastic cup, and grown until the seventh-eighth true leaf was spread. To the apple tree was sprayed, at a rate of 20 mL/cup, the test drug solution. After the drug solution was dried, 60 first-instar larvae of Adoxophyes orana fasciata were released, and covered with a plastic cup the bottom of which was cut off and on which a filter paper was put, with the plastic cup cover placed upside-down. After 7 days, the number of dead insects was counted, and the death rate was calculated according to the following equation. Death rate (%) = (Number of deads insects/Number of tested insects) × 100 [formula]

Musca domestica = assay: Test Example 8: filter paper and sucrose bait test against Musca domestica; conditions: 24 h, read-out: Death rate
Method: The formulation of Compound of Present Invention 1-2 as obtained in Formulation Example 5 was diluted with water, so as to have a concentration of the active ingredient of 500 ppm, to prepare a test drug solution.
A filter paper having a diameter of 5.5 cm was spread on the bottom of a polyethylene cup having the same diameter and 0.7 ml of the test drug solution was added dropwise onto the filter paper, and 30 mg of sucrose was uniformly placed as bait. Into the polyethylene cup, 10 female imagoes of Musca domestica were released, and the cup was sealed with a lid. After 24 hours, the life and death of Musca domestica was examined, the number of dead insects was counted, and the death rate was calculated according to the following equation. Death rate (%) = (Number of deads insects/Number of tested insects) × 100 [formula]

For `CCOC(=O)c1ccc(-c2nc3cc(C(F)(F)F)ccc3n2C)c(S(=O)(=O)CC)c1` [1-8], the mortality at 3.5 ppm (Culex pipiens pallens) was ≥ 95%.
Work on `CCOC(=O)c1ccc(-c2nc3cc(C(F)(F)F)ccc3s2)c(S(=O)(=O)CC)c1` [1-24] yielded a mortality at 2 mg/tube [1] of 100%.
`CCOC(=O)c1ccc(-c2nc3cc(C(F)(F)F)cnc3n2C)c(S(=O)(=O)CC)c1` [1-3] was tested, and the mortality at 500 ppm (Plutella xylostella) was ≥ 80%, the mortality at 500 ppm [2] was ≥ 90% and the mortality at 3.5 ppm (Culex pipiens pallens) was ≥ 95%.
In the case of `CCS(=O)(=O)c1cc(C(=O)OC)ccc1-c1nc2cc(C(F)(F)F)cnc2n1C` [1-2], the mortality at 500 ppm (Plutella xylostella) is reported as ≥ 80%, the mortality at 500 ppm [2] is reported as ≥ 90% and the mortality at 500 ppm (Musca domestica) is reported as 100%. For the same molecule, the mortality at 3.5 ppm (Culex pipiens pallens) was ≥ 95%.
